In ChEMBL document CHEMBL1132080, “Investigation of the S3 site of thrombin: design, synthesis and biological activity of 4-substituted 3-amino-2-pyridones incorporating P1-argininals” (Bioorg Med Chem Lett, 1999):

What was measured:
Plasminogen = Plasminogen (Homo sapiens, UniProt P00747); test: Concentration required for the in vitro inhibitory activity against human enzyme, Plasmin cleavage of the chromogenic substrate
Coagulation factor X = Coagulation factor X (Homo sapiens, UniProt P00742); test: Concentration required for the in vitro inhibitory activity against human enzyme, Factor Xa cleavage of the chromogenic substrate
Prothrombin = Prothrombin (Homo sapiens, UniProt P00734); test: Concentration required for the in vitro inhibitory activity against human enzyme, thrombin cleavage of the chromogenic substrate
Serine protease 1 = Serine protease 1 (Homo sapiens, UniProt P07477); test: Concentration required for the in vitro inhibitory activity against human enzyme, trypsin cleavage of the chromogenic substrate
Serine protease 1, sequence (P07477 whole entry): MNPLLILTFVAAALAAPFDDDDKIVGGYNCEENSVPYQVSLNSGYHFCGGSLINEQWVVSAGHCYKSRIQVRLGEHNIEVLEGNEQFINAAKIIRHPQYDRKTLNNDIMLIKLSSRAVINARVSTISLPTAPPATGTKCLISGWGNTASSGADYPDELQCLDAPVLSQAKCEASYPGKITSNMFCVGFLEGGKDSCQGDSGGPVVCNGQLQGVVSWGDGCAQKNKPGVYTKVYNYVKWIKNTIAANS

Coagulation factor X, sequence (P00742 41-179 limits assumed): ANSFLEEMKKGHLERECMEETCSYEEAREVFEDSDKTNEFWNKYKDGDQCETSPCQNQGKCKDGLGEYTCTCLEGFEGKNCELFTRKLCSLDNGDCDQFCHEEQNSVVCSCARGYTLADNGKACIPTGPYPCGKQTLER
Coagulation factor X, sequence (P00742 235-488 limits assumed): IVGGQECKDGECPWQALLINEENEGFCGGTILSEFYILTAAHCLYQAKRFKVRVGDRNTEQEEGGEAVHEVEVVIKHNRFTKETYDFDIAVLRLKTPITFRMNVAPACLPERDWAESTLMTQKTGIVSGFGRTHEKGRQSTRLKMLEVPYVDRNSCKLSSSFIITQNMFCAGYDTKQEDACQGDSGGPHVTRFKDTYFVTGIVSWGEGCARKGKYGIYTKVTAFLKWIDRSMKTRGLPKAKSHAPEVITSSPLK
Plasminogen, sequence (P00747 97-580 limits assumed): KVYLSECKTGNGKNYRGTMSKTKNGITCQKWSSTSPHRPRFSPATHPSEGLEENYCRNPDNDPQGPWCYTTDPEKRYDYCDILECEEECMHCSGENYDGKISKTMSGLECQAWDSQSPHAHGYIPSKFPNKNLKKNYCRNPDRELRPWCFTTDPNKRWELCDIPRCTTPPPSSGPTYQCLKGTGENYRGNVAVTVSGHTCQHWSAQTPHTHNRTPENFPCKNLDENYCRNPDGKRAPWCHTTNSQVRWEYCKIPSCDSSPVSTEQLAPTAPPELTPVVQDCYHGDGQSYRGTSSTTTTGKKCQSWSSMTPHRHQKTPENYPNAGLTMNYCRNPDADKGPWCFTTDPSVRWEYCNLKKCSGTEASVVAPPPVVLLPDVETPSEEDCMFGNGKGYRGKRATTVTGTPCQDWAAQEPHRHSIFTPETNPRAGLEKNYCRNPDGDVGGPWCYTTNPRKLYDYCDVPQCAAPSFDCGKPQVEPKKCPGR
Plasminogen, sequence (P00747 581-810 limits assumed): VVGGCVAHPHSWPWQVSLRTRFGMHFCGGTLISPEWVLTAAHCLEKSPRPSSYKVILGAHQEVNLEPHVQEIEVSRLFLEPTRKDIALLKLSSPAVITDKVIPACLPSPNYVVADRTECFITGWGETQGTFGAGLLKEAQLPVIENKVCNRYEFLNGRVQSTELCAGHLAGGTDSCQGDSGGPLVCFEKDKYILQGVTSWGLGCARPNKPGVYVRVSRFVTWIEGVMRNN

## CS(=O)(=O)Nc1c(CCC2CCCCC2)ccn(CC(=O)N[C@H]2CCCN(C(=N)N)C2O)c1=O (some centres not stated)
Plasminogen
  IC50: > 2500 nM
Coagulation factor X
  IC50: 2500 nM
Prothrombin
  IC50: 256 nM
Serine protease 1
  IC50: 257 nM

## CS(=O)(=O)Nc1c(CCCc2ccccc2)ccn(CC(=O)N[C@H]2CCCN(C(=N)N)C2O)c1=O (some centres not stated)
Plasminogen
  IC50: > 2500 nM
Coagulation factor X
  IC50: > 2500 nM
Prothrombin
  IC50: 203 nM
Serine protease 1
  IC50: 479 nM

## N=C(N)N1CCC[C@H](NC(=O)CN2CCCC(NS(=O)(=O)Cc3ccccc3)C2=O)C1O (some centres not stated)
Plasminogen
  IC50: > 2500 nM
Coagulation factor X
  IC50: 2500 nM
Prothrombin
  IC50: 6.2 nM
Serine protease 1
  IC50: 791 nM

## CC(=O)Nc1c(CCc2ccccc2)ccn(CC(=O)N[C@H]2CCCN(C(=N)N)C2O)c1=O (some centres not stated)
Plasminogen
  IC50: > 2500 nM
Coagulation factor X
  IC50: > 2500 nM
Prothrombin
  IC50: 472 nM
Serine protease 1
  IC50: 1220 nM

## CNS(=O)(=O)Nc1c(CCc2ccccc2)ccn(CC(=O)N[C@H]2CCCN(C(=N)N)C2O)c1=O (some centres not stated)
Plasminogen
  IC50: 250 nM
Coagulation factor X
  IC50: 2500 nM
Prothrombin
  IC50: 50.5 nM
Serine protease 1
  IC50: 103 nM

## N=C(N)N1CCC[C@H](NC(=O)Cn2ccc(CCc3ccccc3)c(NS(=O)(=O)c3ccccc3)c2=O)C1O (some centres not stated)
Plasminogen
  IC50: > 2500 nM
Coagulation factor X
  IC50: 2360 nM
Prothrombin
  IC50: 89.1 nM
Serine protease 1
  IC50: 188 nM

## CS(=O)(=O)Nc1c(CCc2ccccc2)ccn(CC(=O)N[C@H]2CCCN(C(=N)N)C2O)c1=O (some centres not stated)
Plasminogen
  IC50: > 2500 nM
Coagulation factor X
  IC50: > 2500 nM
Prothrombin
  IC50: 7.95 nM
Serine protease 1
  IC50: 135 nM

## N=C(N)N1CCC[C@H](NC(=O)Cn2ccc(CCc3ccccc3)c(NS(=O)(=O)CC(F)(F)F)c2=O)C1O (some centres not stated)
Plasminogen
  IC50: > 2500 nM
Coagulation factor X
  IC50: > 2500 nM
Prothrombin
  IC50: 194 nM
Serine protease 1
  IC50: 1220 nM
